Measured values from patent US8003823B2, “Halo active aromatic sulfonamide organic compounds and odor control uses therefor” (priority 2002, dated 2011).

Assays:
[1] = Odor control spray test, six person human panel: onion odor; parameters: key: E=Excellent, immediate removal of odor, no remaining odor.; G=Good, Immediate (within seconds) reduction of odor, very slight but detectable trace odor remains.; F=Fair, Immediate (within seconds) reduction, more pronounced odor remains.; P=Detectable reduction in odor but rate of reduction is slow and a much more pronounced odor remains; settings: 2 g chopped white onion, 3 g of 1% w/w solution with 0.3% Avenal S-74, pH 8.0-9.0, sprayed, 20° C.
Procedure: (§1) For purposes of conducting the test in accordance with the below listed Examples a series of odorous test reagents were prepared. The utilized odorous test reagents are in accordance with the following:
2 g samples of chopped white onion (Approximately ⅛″ cubes) were prepared and used for each test.
(§2) Unless otherwise specified separate 1% w/w solutions in water of each halo active aromatic sulfonamide derivative were prepared for use. Each solution also contained 0.3% Avenal S-74. The pH of the resulting formulations varied between 8.0 and 9.0.
(§3) The testing protocol for Examples 1 thru 12 involved is as follows: The defined odorous reagents were added to a beaker, watch glass, or petri dish. For each aromatic sulfonamide derivative, 3 grams of the formulated odor control solution defined above were sprayed with a trigger sprayer, separately onto each odor (onion, garlic, fox urine, rotten egg. Odor evaluations were then made by a six person human panel.
(§4) The evaluation criteria utilized is as follows;
(§5) All test evaluations were made at 20° C.

[2] = Odor control spray test, six person human panel: garlic odor (DMSO); parameters: key: E=Excellent, immediate removal of odor, no remaining odor.; G=Good, Immediate (within seconds) reduction of odor, very slight but detectable trace odor remains.; F=Fair, Immediate (within seconds) reduction, more pronounced odor remains.; P=Detectable reduction in odor but rate of reduction is slow and a much more pronounced odor remains; settings: 1 g DMSO, 3 g of 1% w/w solution with 0.3% Avenal S-74, pH 8.0-9.0, sprayed, 20° C.
Procedure: as §1
DMSO (dimethyl sulfoxide) 1 g was used for each test.
as §2, §3, §4, §5

[3] = Odor control spray test, six person human panel: fox urine odor; parameters: key: E=Excellent, immediate removal of odor, no remaining odor.; G=Good, Immediate (within seconds) reduction of odor, very slight but detectable trace odor remains.; F=Fair, Immediate (within seconds) reduction, more pronounced odor remains.; P=Detectable reduction in odor but rate of reduction is slow and a much more pronounced odor remains; settings: 0.5 g red fox urine, 3 g of 1% w/w solution with 0.3% Avenal S-74, pH 8.0-9.0, sprayed, 20° C.
Procedure: as §1
0.5 g of deer hunter's grade red fox urine was used for each test.
as §2, §3, §4, §5

[4] = Odor control spray test, six person human panel: rotten egg odor (sodium sulfide + acetic acid); parameters: key: E=Excellent, immediate removal of odor, no remaining odor.; G=Good, Immediate (within seconds) reduction of odor, very slight but detectable trace odor remains.; F=Fair, Immediate (within seconds) reduction, more pronounced odor remains.; P=Detectable reduction in odor but rate of reduction is slow and a much more pronounced odor remains; settings: 0.1 g 5% sodium sulfide solution + 2 drops glacial acetic acid, 3 g of 1% w/w solution with 0.3% Avenal S-74, pH 8.0-9.0, sprayed, 20° C.
Procedure: as §1
0.1 g of a 5% sodium sulfide solution was added to a beaker and 2 drops of glacial acetic acid was added to prepare the rotten egg scent and used for each test.
as §2, §3, §4, §5

[5] = Stability of sulfonamide in base formulation at various pHs and alcohols; type: physicochemical
Procedure: In order to evaluate the stability of various sulfonamide compounds for use in odor control, the stability of N-chloro-4carboxybenzenesulfonamide disodium salt was evaluated at various pHs. A base sulfonamide formulation was prepared in accordance with the following formulation: […]
The pH of 20 ml sample of the base formulation is 8.7. The temperature of the sample was raised to 50° C. and the sample was allowed to stand for 30 days.
21. The test protocol of Example 20 was repeated except that the pH of the sample was adjusted to 6.0, with 1N sulfuric acid and the sample was allowed to stand for 1 day. At the end of this period 0%, of the N-chloro-4-carboxybenzenesulfonamide disodium salt remained.
22. The test procedure of Example 20 was repeated, wherein the pH of the sample was adjusted to 6.0 with 1N sulfuric acid and the t-Butanol was replaced with ethanol. The solution was allowed to stand 1 day at which time 0% of the sulfonamide compound remained.
23. The test procedure of Example 20 was repeated where the pH of the sample was 8.7 and the t-butanol was replaced with ethanol. The sample was allowed to stand for 7 days. At the end of this period 0%, the N-chloro-4-carboxybenzenesulfonamide disodium salt remained.
24. The test procedure of Example 20 was repeated, wherein the pH of the sample was adjusted to 10.3 with 1N sodium hydroxide and the t-Butanol was replaced with ethanol. The solution was allowed to stand 30 days at which time 70% of the sulfonamide compound remained.
25. The test procedure of Example 20 was repeated, wherein the pH of the sample was adjusted to 6.0 with 1N sulfuric acid and the t-Butanol was replaced with isopropanol. The solution was allowed to stand 1 day at which time 0% of the sulfonamide compound remained.
26. The test procedure of Example 20 was repeated where the pH of the sample was 8.7 and the t-butanol was replaced with isopropanol. The sample was allowed to stand for 7 days. At the end of this period 50%, the N-chloro-4-carboxybenzenesulfonamide disodium salt remained.
27. The test procedure of Example 20 was repeated, wherein the pH of the sample was adjusted to 10.3 with 1N sodium hydroxide and the t-Butanol was replaced with isopropanol. The solution was allowed to stand 30 days at which time 90% of the sulfonamide compound remained.

Row | Molecule | Onion odor evaluation [1] | Garlic odor evaluation [2] | Fox Urine odor evaluation [3] | Rotten Egg odor evaluation [4] | sulfonamide compound remained ([5]; base formulation with t-Butanol, pH 8.7, 50° C., 30 days) [%] | sulfonamide compound remained ([5]; t-Butanol replaced with ethanol, pH 6.0, 50° C., 1 day) [%] | sulfonamide compound remained ([5]; t-Butanol replaced with ethanol, pH 10.3 with 1N sodium hydroxide, 50° C., 30 days) [%] | sulfonamide compound remained ([5]; t-Butanol replaced with isopropanol, pH 6.0, 50° C., 1 day) [%] | sulfonamide compound remained ([5]; t-Butanol replaced with isopropanol, pH 10.3 with 1N sodium hydroxide, 50° C., 30 days) [%] | sulfonamide compound remained ([5]; t-Butanol, pH adjusted to 6.0 with 1N sulfuric acid, 50° C., 1 day) [%] | sulfonamide compound remained ([5]; t-butanol replaced with ethanol, pH 8.7, 50° C., 7 days) [%] | sulfonamide compound remained ([5]; t-butanol replaced with isopropanol, pH 8.7, 50° C., 7 days) [%]
1 | O=[N+]([O-])c1ccc(S(=O)(=O)[N-]Cl)cc1.[Na+] [Example 11] | G | F | E | F | – | – | – | – | – | – | – | –
2 | O=C([O-])c1ccc(S(=O)(=O)[N-]Cl)cc1.[Na+].[Na+] [Example 12] | E | F | E | E | – | – | – | – | – | – | – | –
3 | N-chloro-4-carboxybenzenesulfonamide disodium salt | – | – | – | – | 99.5 | 0 | 70 | 0 | 90 | 0 | 0 | 50
